Data as given in ChEMBL document CHEMBL4732193, “Design, synthesis, and anti-tumor activities of novel Brevinin-1BYa peptidomimetics” (Bioorg Med Chem Lett, 2021).
Starred links: 1 amine or outer side, 2 acyl side, 3 side chain; linkers in the order of their positions; H or OH if unused. Positions of bridges follow the written chain, without caps; N, C: chain ends. Non-standard residues stand in square brackets, D forms with d. Residues, ends and D or L forms follow the SMILES beside them. Triazole bridges read from a SMILES are 1,4-linked. *: point of attachment. βGlcNAc = CC(=O)N[C@@H]1[C@@H](O)[C@H](O)[C@@H](CO)O[C@H]1*; Abu(4-yl) = O=C([C@H](CC[*:3])N[*:1])[*:2]; Dap(N3) = [N-]=[N+]=NC[C@H](N)C(=O)O; Pra = C#CC[C@H](N)C(=O)O; Dap = NC[C@H](N)C(=O)O

Key:
Huh-7 [1] = assay: Anticancer activity against human Huh-7 cells assessed as cell growth inhibition by CCK8 assay; assay type: functional, cell-based
[2] = Stability of the compound in aqueous DTT solution measured after 48 hrs; assay type: physicochemical; settings: buffer
alpha chymotrypsin = assay: Stability of the compound assessed as alpha chymotrypsin (unknown origin)-mediated proteolysis by measuring degradation half life measured for 24 hrs; assay type: ADME, Homo sapiens
A549 = assay: Anticancer activity against human A549 cells assessed as cell growth inhibition by CCK8 assay; assay type: functional, cell-based
[3] = Helicity of the compound in TFE aqueous solution by CD spectroscopy; assay type: physicochemical; settings: buffer
[4] = Hemolytic activity in rabbit erythrocytes assessed as hemoglobin release; assay type: ADME, cell-based, Oryctolagus cuniculus, Erythrocyte
[5] = Stability of the compound in aqueous DTT solution assessed as degradation half life measured for 48 hrs; assay type: physicochemical
LNCaP C4-2B [6] = assay: Anticancer activity against human LNCaP C4-2B cells assessed as cell growth inhibition by CCK8 assay; assay type: functional, cell-based
[7] = Ratio of test compound t1/2 to Brevinin-1BYa t1/2 for alpha chymotrypsin (unknown origin)-mediated proteolysis measured for 24 hrs; assay type: ADME; settings: human
[8] = Helicity of the compound in TFE aqueous solution by CD spectroscopy relative to Brevinin-1BYa; assay type: physicochemical; settings: buffer
Huh-7 [9] = assay: Potency index, ratio of Brevinin-1BYa IC50 to test compound IC50 for human Huh-7 cells by CCK8 assay; assay type: functional
LNCaP C4-2B [10] = assay: Potency index, ratio of Brevinin-1BYa IC50 to test compound IC50 for human LNCaP C4-2B cells by CCK8 assay; assay type: functional

SMILES	IC50 (Huh-7 [1])	Stabilty [2]	half-life (alpha chymotrypsin)	IC50 (A549)	Activity [3]	half-life [5]	IC50 (LNCaP C4-2B [6])	Ratio [7]	fold change (FC) [8]	HC50 [4]	Ratio IC50 (Huh-7 [9])	Ratio IC50 (LNCaP C4-2B [10])
CC[C@H](C)[C@H](NC(=O)[C@H](CC(C)C)NC(=O)[C@H](C)NC(=O)[C@H](CO)NC(=O)[C@H](CC(C)C)NC(=O)[C@H](C)NC(=O)[C@H](C)NC(=O)[C@H](CCCCN)NC(=O)[C@H](Cc1ccccc1)NC(=O)CNC(=O)[C@@H]1CCCN1C(=O)[C@H](CCCCN)NC(=O)[C@H](CC(C)C)NC(=O)[C@H](Cc1ccccc1)NC(=O)[C@@H]1CNC(=O)C[C@H](N)C(=O)N[C@@H](CCCCN)C(=O)N[C@@H](CCCCN)C(=O)N[C@@H]([C@@H](C)O)C(=O)N[C@@H](C(C)C)C(=O)N[C@@H](CC(C)C)C(=O)N1)C(=O)N1CCC[C@H]1C(=O)N[C@@H](CC(C)C)C(=O)N[C@@H](Cc1ccccc1)C(=O)O (H-DKKTVL[Dap]FLKPGFKAALSALIPLF-OH; lactam 1-7)	16.6 µM	Stable	1.81 h	17.1 µM	26.34%	> 12 h	16.8 µM			> 100 µM		
CC[C@H](C)[C@H](NC(=O)[C@H](CC(C)C)NC(=O)[C@H](C)NC(=O)[C@H](CO)NC(=O)[C@H](CC(C)C)NC(=O)[C@H](C)NC(=O)[C@H](C)NC(=O)[C@H](CCCCN)NC(=O)[C@H](Cc1ccccc1)NC(=O)CNC(=O)[C@@H]1CCCN1C(=O)[C@H](CCCCN)NC(=O)[C@H](CC(C)C)NC(=O)[C@H](Cc1ccccc1)NC(=O)[C@@H]1CSSC[C@H](N)C(=O)N[C@@H](CCCCN)C(=O)N[C@@H](CCCCN)C(=O)N[C@@H]([C@@H](C)O[C@@H]2O[C@H](CO)[C@@H](O)[C@H](O)[C@H]2NC(C)=O)C(=O)N[C@@H](C(C)C)C(=O)N[C@@H](CC(C)C)C(=O)N1)C(=O)N1CCC[C@H]1C(=O)N[C@@H](CC(C)C)C(=O)N[C@@H](Cc1ccccc1)C(=O)O (H-CKKT(βGlcNAc)VLCFLKPGFKAALSALIPLF-OH; disulfide 1-7)	23.4 µM	Unstable	4.33 h	20.9 µM		3.32 h	20.5 µM	1.67		> 100 µM		
CC[C@H](C)[C@H](NC(=O)[C@H](CC(C)C)NC(=O)[C@H](C)NC(=O)[C@H](CO)NC(=O)[C@H](CC(C)C)NC(=O)[C@H](C)NC(=O)[C@H](C)NC(=O)[C@H](CCCCN)NC(=O)[C@H](Cc1ccccc1)NC(=O)CNC(=O)[C@@H]1CCCN1C(=O)[C@H](CCCCN)NC(=O)[C@H](CC(C)C)NC(=O)[C@H](Cc1ccccc1)NC(=O)[C@@H]1Cn2cc(nn2)C[C@H](N)C(=O)N[C@@H](CCCCN)C(=O)N[C@@H](CCCCN)C(=O)N[C@@H]([C@@H](C)O)C(=O)N[C@@H](C(C)C)C(=O)N[C@@H](CC(C)C)C(=O)N1)C(=O)N1CCC[C@H]1C(=O)N[C@@H](CC(C)C)C(=O)N[C@@H](Cc1ccccc1)C(=O)O (H-[Pra]KKTVL[Dap(N3)]FLKPGFKAALSALIPLF-OH; triazole 1-7)	11.3 µM	Stable	2.93 h	21.7 µM		> 12 h	12.6 µM			70.4 µM		
CC[C@H](C)[C@H](NC(=O)[C@H](CC(C)C)NC(=O)[C@H](C)NC(=O)[C@H](CO[C@@H]1O[C@H](CO)[C@@H](O)[C@H](O)[C@H]1NC(C)=O)NC(=O)[C@H](CC(C)C)NC(=O)[C@H](C)NC(=O)[C@H](C)NC(=O)[C@H](CCCCN)NC(=O)[C@H](Cc1ccccc1)NC(=O)CNC(=O)[C@@H]1CCCN1C(=O)[C@H](CCCCN)NC(=O)[C@H](CC(C)C)NC(=O)[C@H](Cc1ccccc1)NC(=O)[C@@H]1CSSC[C@H](N)C(=O)N[C@@H](CCCCN)C(=O)N[C@@H](CCCCN)C(=O)N[C@@H]([C@@H](C)O)C(=O)N[C@@H](C(C)C)C(=O)N[C@@H](CC(C)C)C(=O)N1)C(=O)N1CCC[C@H]1C(=O)N[C@@H](CC(C)C)C(=O)N[C@@H](Cc1ccccc1)C(=O)O (H-CKKTVLCFLKPGFKAALS(βGlcNAc)ALIPLF-OH; disulfide 1-7)	39.6 µM	Unstable	4.32 h	32.6 µM		3.31 h	18.7 µM	1.66		> 100 µM		

Continued, in another order:

IC50 (Huh-7 [1])	Stabilty [2]	half-life (alpha chymotrypsin)	IC50 (A549)	Activity [3]	half-life [5]	IC50 (LNCaP C4-2B [6])	Ratio [7]	fold change (FC) [8]	SMILES	HC50 [4]	Ratio IC50 (Huh-7 [9])	Ratio IC50 (LNCaP C4-2B [10])
14.9 µM	Unstable	1.62 h	9.24 µM	22.57%	3.35 h	14 µM			CC[C@H](C)[C@H](NC(=O)[C@H](CC(C)C)NC(=O)[C@H](C)NC(=O)[C@H](CO)NC(=O)[C@H](CC(C)C)NC(=O)[C@H](C)NC(=O)[C@H](C)NC(=O)[C@H](CCCCN)NC(=O)[C@H](Cc1ccccc1)NC(=O)CNC(=O)[C@@H]1CCCN1C(=O)[C@H](CCCCN)NC(=O)[C@H](CC(C)C)NC(=O)[C@H](Cc1ccccc1)NC(=O)[C@@H]1CSSC[C@H](N)C(=O)N[C@@H](CCCCN)C(=O)N[C@@H](CCCCN)C(=O)N[C@@H]([C@@H](C)O)C(=O)N[C@@H](C(C)C)C(=O)N[C@@H](CC(C)C)C(=O)N1)C(=O)N1CCC[C@H]1C(=O)N[C@@H](CC(C)C)C(=O)N[C@@H](Cc1ccccc1)C(=O)O (H-CKKTVLCFLKPGFKAALSALIPLF-OH; disulfide 1-7)	94.4 µM		
10.8 µM	Stable	2.51 h	11.2 µM	83.65%	> 12 h	9.23 µM		2.7	CC[C@H](C)[C@H](NC(=O)[C@H](CC(C)C)NC(=O)[C@H](C)NC(=O)[C@H](CO)NC(=O)[C@H](CC(C)C)NC(=O)[C@H](C)NC(=O)[C@H](C)NC(=O)[C@H](CCCCN)NC(=O)[C@H](Cc1ccccc1)NC(=O)CNC(=O)[C@@H]1CCCN1C(=O)[C@H](CCCCN)NC(=O)[C@H](CC(C)C)NC(=O)[C@H](Cc1ccccc1)NC(=O)[C@@H]1CCSC[C@H](N)C(=O)N[C@@H](CCCCN)C(=O)N[C@@H](CCCCN)C(=O)N[C@@H]([C@@H](C)O)C(=O)N[C@@H](C(C)C)C(=O)N[C@@H](CC(C)C)C(=O)N1)C(=O)N1CCC[C@H]1C(=O)N[C@@H](CC(C)C)C(=O)N[C@@H](Cc1ccccc1)C(=O)O (H-CKKTVL[Abu(4-yl)]FLKPGFKAALSALIPLF-OH; thioether 1-7)	70.4 µM	1.38	1.5
